Test results published in the NIST ThermoML archive (doi:10.1021/je060389r).
Numbers after ± are expanded uncertainties.

Columns and labels:
[1] = 298.15 K, 101 kPa, Liquid; for viscosity: Capillary tube (Ostwald / Ubbelohde) method; for speed of sound: Linear variable-path acoustic interferometer; for mass density: Pycnometric method
[2] = xn = mol fraction of the nth substance listed; conditions: 298.15 K, 101 kPa, Liquid; for viscosity: Capillary tube (Ostwald / Ubbelohde) method; for speed of sound: Linear variable-path acoustic interferometer; for mass density: Pycnometric method

## CC(C)CO [2-methyl-1-propanol]
[1]
  viscosity: 3.404 ± 0.029 mPa·s
  speed of sound: 1191.3 ± 9.6 m/s
  mass density: 798.2 ± 0.4 kg/m3

## CC(C)CO [2-methyl-1-propanol] + CCCCCC
[2]; x1 = 0.0554
  viscosity: 0.323 ± 0.012 mPa·s
  speed of sound: 1077.5 ± 8.7 m/s
  mass density: 660.1 ± 0.4 kg/m3
[2]; x1 = 0.104
  viscosity: 0.337 ± 0.012 mPa·s
  speed of sound: 1077.5 ± 8.7 m/s
  mass density: 664.9 ± 0.4 kg/m3
[2]; x1 = 0.2
  viscosity: 0.373 ± 0.012 mPa·s
  speed of sound: 1080.1 ± 8.7 m/s
  mass density: 675.1 ± 0.4 kg/m3
[2]; x1 = 0.3274
  viscosity: 0.462 ± 0.012 mPa·s
  speed of sound: 1086.7 ± 8.8 m/s
  mass density: 690.1 ± 0.4 kg/m3
[2]; x1 = 0.4173
  viscosity: 0.547 ± 0.013 mPa·s
  speed of sound: 1094.1 ± 8.8 m/s
  mass density: 701.6 ± 0.4 kg/m3
[2]; x1 = 0.4666
  viscosity: 0.606 ± 0.013 mPa·s
  speed of sound: 1099.2 ± 8.9 m/s
  mass density: 708.3 ± 0.4 kg/m3
[2]; x1 = 0.5057
  viscosity: 0.659 ± 0.013 mPa·s
  speed of sound: 1103.5 ± 8.9 m/s
  mass density: 713.8 ± 0.4 kg/m3
[2]; x1 = 0.5589
  viscosity: 0.748 ± 0.013 mPa·s
  speed of sound: 1110 ± 9 m/s
  mass density: 721.5 ± 0.4 kg/m3
[2]; x1 = 0.609
  viscosity: 0.859 ± 0.013 mPa·s
  speed of sound: 1116.9 ± 9 m/s
  mass density: 729 ± 0.4 kg/m3
[2]; x1 = 0.7073
  viscosity: 1.162 ± 0.014 mPa·s
  speed of sound: 1132.5 ± 9.2 m/s
  mass density: 744.6 ± 0.4 kg/m3
[2]; x1 = 0.8051
  viscosity: 1.627 ± 0.017 mPa·s
  speed of sound: 1150 ± 9.3 m/s
  mass density: 761.2 ± 0.4 kg/m3
[2]; x1 = 0.861
  viscosity: 2.004 ± 0.019 mPa·s
  speed of sound: 1161.3 ± 9.4 m/s
  mass density: 771.2 ± 0.4 kg/m3
[2]; x1 = 0.9149
  viscosity: 2.454 ± 0.022 mPa·s
  speed of sound: 1172.5 ± 9.5 m/s
  mass density: 781.3 ± 0.4 kg/m3
[2]; x1 = 0.9376
  viscosity: 2.67 ± 0.023 mPa·s
  speed of sound: 1177.5 ± 9.5 m/s
  mass density: 785.7 ± 0.4 kg/m3
[2]; x1 = 1
  viscosity: 3.404 ± 0.029 mPa·s
  speed of sound: 1191.3 ± 9.6 m/s
  mass density: 798.2 ± 0.4 kg/m3

## CC(C)CO [2-methyl-1-propanol] + CCCCCCCC
[2]; x1 = 0.0589
  viscosity: 0.527 ± 0.013 mPa·s
  speed of sound: 1168.3 ± 9.4 m/s
  mass density: 701.5 ± 0.4 kg/m3
[2]; x1 = 0.1165
  viscosity: 0.535 ± 0.013 mPa·s
  speed of sound: 1166.5 ± 9.4 m/s
  mass density: 704.5 ± 0.4 kg/m3
[2]; x1 = 0.205
  viscosity: 0.576 ± 0.013 mPa·s
  speed of sound: 1164.8 ± 9.4 m/s
  mass density: 709.8 ± 0.4 kg/m3
[2]; x1 = 0.2792
  viscosity: 0.617 ± 0.013 mPa·s
  speed of sound: 1164 ± 9.4 m/s
  mass density: 714.7 ± 0.4 kg/m3
[2]; x1 = 0.3371
  viscosity: 0.663 ± 0.013 mPa·s
  speed of sound: 1163.1 ± 9.4 m/s
  mass density: 718.9 ± 0.4 kg/m3
[2]; x1 = 0.4081
  viscosity: 0.719 ± 0.013 mPa·s
  speed of sound: 1162.7 ± 9.4 m/s
  mass density: 724.6 ± 0.4 kg/m3
[2]; x1 = 0.4662
  viscosity: 0.788 ± 0.013 mPa·s
  speed of sound: 1163.3 ± 9.4 m/s
  mass density: 729.6 ± 0.4 kg/m3
[2]; x1 = 0.5126
  viscosity: 0.85 ± 0.013 mPa·s
  speed of sound: 1163.7 ± 9.4 m/s
  mass density: 733.9 ± 0.4 kg/m3
[2]; x1 = 0.6126
  viscosity: 1.028 ± 0.014 mPa·s
  speed of sound: 1166.3 ± 9.4 m/s
  mass density: 744.1 ± 0.4 kg/m3
[2]; x1 = 0.6615
  viscosity: 1.154 ± 0.014 mPa·s
  speed of sound: 1168.4 ± 9.4 m/s
  mass density: 749.5 ± 0.4 kg/m3
[2]; x1 = 0.7069
  viscosity: 1.3 ± 0.015 mPa·s
  speed of sound: 1170 ± 9.5 m/s
  mass density: 754.9 ± 0.4 kg/m3
[2]; x1 = 0.7855
  viscosity: 1.634 ± 0.017 mPa·s
  speed of sound: 1173.5 ± 9.5 m/s
  mass density: 765 ± 0.4 kg/m3
[2]; x1 = 0.8615
  viscosity: 2.102 ± 0.019 mPa·s
  speed of sound: 1178.6 ± 9.5 m/s
  mass density: 775.8 ± 0.4 kg/m3
[2]; x1 = 0.9523
  viscosity: 2.875 ± 0.025 mPa·s
  speed of sound: 1187 ± 9.6 m/s
  mass density: 790.1 ± 0.4 kg/m3
[2]; x1 = 1
  viscosity: 3.404 ± 0.029 mPa·s
  speed of sound: 1191.3 ± 9.6 m/s
  mass density: 798.2 ± 0.4 kg/m3

## CC(C)CO [2-methyl-1-propanol] + CCCCCCCCCC
[2]; x1 = 0.0728
  viscosity: 0.848 ± 0.013 mPa·s
  speed of sound: 1228.7 ± 9.9 m/s
  mass density: 728.1 ± 0.4 kg/m3
[2]; x1 = 0.1021
  viscosity: 0.859 ± 0.013 mPa·s
  speed of sound: 1226.6 ± 9.9 m/s
  mass density: 729 ± 0.4 kg/m3
[2]; x1 = 0.2032
  viscosity: 0.89 ± 0.013 mPa·s
  speed of sound: 1219.9 ± 9.9 m/s
  mass density: 732.6 ± 0.4 kg/m3
[2]; x1 = 0.2976
  viscosity: 0.934 ± 0.014 mPa·s
  speed of sound: 1215.2 ± 9.8 m/s
  mass density: 736.4 ± 0.4 kg/m3
[2]; x1 = 0.3547
  viscosity: 0.976 ± 0.014 mPa·s
  speed of sound: 1212.2 ± 9.8 m/s
  mass density: 739 ± 0.4 kg/m3
[2]; x1 = 0.4171
  viscosity: 1.023 ± 0.014 mPa·s
  speed of sound: 1209.4 ± 9.8 m/s
  mass density: 742.1 ± 0.4 kg/m3
[2]; x1 = 0.5016
  viscosity: 1.119 ± 0.014 mPa·s
  speed of sound: 1206.1 ± 9.8 m/s
  mass density: 747 ± 0.4 kg/m3
[2]; x1 = 0.6084
  viscosity: 1.297 ± 0.015 mPa·s
  speed of sound: 1201.8 ± 9.7 m/s
  mass density: 754.2 ± 0.4 kg/m3
[2]; x1 = 0.6575
  viscosity: 1.415 ± 0.016 mPa·s
  speed of sound: 1200.2 ± 9.7 m/s
  mass density: 758 ± 0.4 kg/m3
[2]; x1 = 0.7027
  viscosity: 1.543 ± 0.016 mPa·s
  speed of sound: 1198.4 ± 9.7 m/s
  mass density: 761.9 ± 0.4 kg/m3
[2]; x1 = 0.8004
  viscosity: 1.942 ± 0.018 mPa·s
  speed of sound: 1195.1 ± 9.7 m/s
  mass density: 771.6 ± 0.4 kg/m3
[2]; x1 = 0.8952
  viscosity: 2.503 ± 0.022 mPa·s
  speed of sound: 1192.9 ± 9.6 m/s
  mass density: 782.9 ± 0.4 kg/m3
[2]; x1 = 0.9497
  viscosity: 2.928 ± 0.025 mPa·s
  speed of sound: 1192 ± 9.6 m/s
  mass density: 790.5 ± 0.4 kg/m3
[2]; x1 = 0.9848
  viscosity: 3.249 ± 0.028 mPa·s
  speed of sound: 1191.8 ± 9.6 m/s
  mass density: 795.8 ± 0.4 kg/m3
[2]; x1 = 1
  viscosity: 3.404 ± 0.029 mPa·s
  speed of sound: 1191.3 ± 9.6 m/s
  mass density: 798.2 ± 0.4 kg/m3

## CCCCCCCCCC [decane]
[1]
  viscosity: 0.845 ± 0.013 mPa·s
  speed of sound: 1235.4 ± 10 m/s
  mass density: 725.9 ± 0.4 kg/m3

## CCCCCCCCCC [decane] + CC(C)CO
[2]; x2 = 0
  viscosity: 0.845 ± 0.013 mPa·s
  speed of sound: 1235.4 ± 10 m/s
  mass density: 725.9 ± 0.4 kg/m3

## CCCCCC [hexane]
[1]
  viscosity: 0.313 ± 0.012 mPa·s
  speed of sound: 1078.5 ± 8.7 m/s
  mass density: 654.9 ± 0.4 kg/m3

## CCCCCC [hexane] + CC(C)CO
[2]; x2 = 0
  viscosity: 0.313 ± 0.012 mPa·s
  speed of sound: 1078.5 ± 8.7 m/s
  mass density: 654.9 ± 0.4 kg/m3

## CCCCCCCC [octane]
[1]
  viscosity: 0.518 ± 0.013 mPa·s
  speed of sound: 1170.9 ± 9.5 m/s
  mass density: 698.6 ± 0.4 kg/m3

## CCCCCCCC [octane] + CC(C)CO
[2]; x2 = 0
  viscosity: 0.518 ± 0.013 mPa·s
  speed of sound: 1170.9 ± 9.5 m/s
  mass density: 698.6 ± 0.4 kg/m3
